Measurements taken from patent US9696296B2, “Targeting c-Rel O-GlcNAcylation and uses thereof” (California Institute of Technology, priority 2013, dated 2017).

Columns and labels:
Format in all cases: cell-based, human
[1] = tested on: c-Rel binding CD28RE region; assay: Electrophoretic mobility shift assay, anti-CD3/CD28-induced binding of nuclear extracts to CD28RE probe
Protocol: Jurkat cells were cultured at 1.5×10^6 cells/ml in 6-well plates or 10 cm plates in the presence of 1 μg/ml of Doxycycline for 22 hours for the induction of FLAG-c-Rel. Cells were stimulated for the indicated time points (3 hours) with plate bound anti-CD3 and anti-CD28 (2 μg/ml each). […] PLCγ, Lamin and SP1 were used as loading controls. Cytoplasmic and nuclear extracts were also prepared after culturing in the presence of 1 μg/ml of Doxycycline for 22 hours for the induction of FLAG-c-Rel. FLAG-c-Rel was immunoprecipitated and analyzed with anti-O-GlcNAc antibody.
Nuclear protein extracts were prepared as described^7. Nuclear extracts corresponding to 4-6 μg of protein were tested for DNA binding using the probes containing c-Rel binding CD28RE region and p65 binding IL2-κB region. OCT1 probe was used as a control. In the probe containing CD28RE-NF-IL-2B AP-1 region, the AP site was mutated as previously described to restrict the protein binding only to the CD28RE site in our assays. (Shapiro et al. Mol Cell Biol 17:4051-4058 (1997).) Lysates were incubated with [^32P] γATP labeled probe in the binding buffer (Tris-Cl 10 mM, pH 7.5, Nacl 50 mM, glycerol 4%, MgCl2 1 mM, EDTA 0.1 mM, poly(dI-dC) 50 μg/ml, and 0.1 mM DTT) for 20 min at room temperature. […] Samples were separated in 5% non-denaturing polyacrylamide gel and analyzed by autoradiography.

Jurkat cells = assay: anti-CD3/CD28-induced c-Rel dependent gene expression by quantitative real time PCR
Protocol: Jurkat cells were treated with PUGNAc (100 μM) for 12 hours and then treated with plate bound anti-CD3/CD28 (2 μg/ml) for 3 hours. Some cells were additionally treated overnight with Streptozotocin (STZ, 2 mM) prior to PUGNAc treatment. Gene expression was analyzed by quantitative real time PCR. In other cases, Jurkat T-REx cell clones expressing wild-type and mutant c-Rel were induced with doxycycline for 22 hrs, treated with PUGNAc overnight and then treated with anti-CD3/C28 for 3 hrs.
DNA-free RNA was prepared using the RNeasy Mini Kit according to the manufacturer's instructions (Qiagen). cDNA was synthesized from 0.5-1.0 μg total RNA using random hexamers (Promega) and Superscript III reverse transcriptase first-strand synthesis kit (Invitrogen, Carlsbad, Calif.). Quantitative real time PCR using cDNA corresponding to 20-60 ng of total RNA and Taqman Gene Expression Assays (Applied Biosystems, Foster City, Calif.) was performed in a Real-Time PCR machine (Realplex, Eppendorf) according to the manufacturer's instructions. The results obtained for individual genes were normalized to the expression of TFR for human genes and UBE2D2 for mouse genes. Quantitative real time PCR (qPCR) was performed at least in three independent experiments in triplicates and the relative levels of indicated genes were calculated with respect to the expression of transferrin receptor. Statistical significance was determined by two-tailed unpaired Student's t test and represented as mean±SEM.

Jurkat T-REx cell clones = assay: TNF-induced NF-κB-dependent gene expression by qPCR; conditions: TNF 100 ng/ml 3 hrs, PUGNAc overnight
Protocol: Cells were treated with TNF (100 ng/ml) for 3 hrs. Jurkat T-REx cell clones expressing wild-type and mutant c-Rel were induced with doxycycline for 22 hrs, treated with PUGNAc overnight and then treated with anti-CD3/C28 for 3 hrs. Quantitative real time PCR (qPCR) was performed at least in three independent experiments in triplicates and the relative levels of indicated genes were calculated with respect to the expression of transferrin receptor. Statistical significance was determined by two-tailed unpaired Student's t test and represented as mean±SEM.

p65 = assay: TNF-induced nuclear translocation assay, p65; conditions: Jurkat cells, PUGNAc overnight then TNF
Protocol: (§1) Jurkat cells were treated overnight with PUGNAc and then with TNF. Nuclear extracts were analyzed for c-Rel and p65 nuclear translocation. p105 was used as the loading control.

c-Rel [2] = assay: c-Rel O-GlcNAcylation, immunoprecipitation and anti-O-GlcNAc western blot; conditions: Jurkat cells, 30 mM glucose, PUGNAc 100 μM for 3 hrs
c-Rel [3] = assay: TNF-induced nuclear translocation assay, c-Rel; conditions: Jurkat cells, PUGNAc overnight then TNF
Protocol: as §1

[4] = Jurkat cells, PUGNAc 100 μM 12 hours, then anti-CD3/CD28 3 hours

For `[N-]=[N+]=CC(=O)CC[C@H](N)C(=O)O` [DON, 6-diazo-5-oxo-L-norleucine], the “anti-CD3/CD28-induced CD28RE binding of nuclear extracts” value ([1]; wild-type c-Rel expressing Jurkat cells, DON overnight) was “decreased”.
With `CN(N=O)C(=O)N[C@H]1C(O)O[C@H](CO)[C@@H](O)[C@@H]1O` (mixture of isomers) [Streptozotocin] the “anti-CD3/CD28-induced c-Rel-dependent gene expression (GMCSF)” value (Jurkat cells; STZ 2 mM overnight) was “enhanced”.
With `CC(=O)N[C@H]1/C(=N/OC(=O)Nc2ccccc2)O[C@H](CO)[C@@H](O)[C@@H]1O` [PUGNAc, O-(2-acetamido-2-deoxy-D-glucopyranosylidene)amino-N-phenylcarbamate] the “TNF-induced expression of A20” value (Jurkat T-REx cell clones) was “neither affected”, the “TNF-induced expression of IκBα” value (Jurkat T-REx cell clones) was “neither affected” and the “TNF-induced nuclear p65 levels” value (p65) was “decreased”. The “anti-CD3/CD28-induced CD28RE DNA binding” value ([1]; PUGNAc and high glucose treatment) was “significantly increased”, the “expression of c-Rel-dependent genes in wild-type versus mutant c-Rel cells” value (Jurkat cells; Jurkat T-REx clones expressing wild-type or S350A c-Rel, PUGNAc overnight, anti-CD3/CD28 3 hrs) was “significantly potentiated the expression of c-Rel-dependent genes only in wild-type c-Rel expressing cells” and the “anti-CD3/CD28-induced expression of GMCSF” value (Jurkat cells; [4]) was “significantly potentiated”. The “anti-CD3/CD28-induced expression of IL-2” value (Jurkat cells; [4]) was “significantly potentiated”, the “TCR-induced expression of A20 and IκBα” value (Jurkat cells; PUGNAc treatment) was “did not observe any effect” and the “O-GlcNAcylation of c-Rel” value (c-Rel [2]) was “further enhanced the O-GlcNAcylation of c-Rel”. The “TNF induced c-Rel nuclear translocation” value (c-Rel [3]) was “no effect”.
